# Experimental data from patent publication US20090239917A1, “Heterocyclic Cycloalkyl Compounds, a Process for their Preparation and Pharmaceutical Compositions Containing Them” (Les Laboratoires Servier, priority 2006, published 2009).
# Tested on: ob/ob mouse
# Assay: Antidiabetic and hypolipaemic effect in the ob/ob mouse
# Format: in vivo
# Excerpt: Mutations in laboratory animals and also different sensitivities to dietary regimens have allowed the development of animal models having non-insulin-dependent diabetes and hyperlipidaemia associated with obesity and with resistance to insulin. Genetic mice models (ob/ob) (Diabetes, 1982, 31 (1), 1-6) and Zucker (fa/fa) rats have been developed by various laboratories in order to understand the physiopathology of those diseases and test the effectiveness of new antidiabetic compounds (Diabetes, 1983, 32, 830-838).
# The 10-week-old male ob/ob mouse (Harlan) is used for the in vivo tests. The animals are kept in a light-darkness cycle of 12 hours at 25° C. This mouse has a basal hyperglycaemia of 2 g/l. The animals are randomly selected with regard to their glycaemia to form groups of eight. […] The control group receives the solvents under the same conditions as the treated groups. The activity of the products is evaluated by measuring glycaemia, insulinaemia and triglyceridaemia 24 hours after the final administration and by measuring body weight daily.
# [1] = 3 mg/kg oral, once per day for four days, 24 hours after final administration
Structure (SMILES),reduction of glycaemia vs control mice [1] [%],reduction of insulinaemia vs control mice [1] [%],reduction of triglyceridaemia vs control mice [1] [%],reduction in glycaemia (1 mg/kg) [%],reduction in insulinaemia (1 mg/kg) [%],reduction in the weight gain observed in the ob/ob control mice (1 mg/kg) [%],reduction in triglyceridaemia (1 mg/kg) [%]
"O=C(c1ccc2c(c1)sc(=O)n2CCOc1ccc(CC(OCC(F)(F)F)C(=O)O)cc1)C1CC1 (stereo not shown) [Example 2, 3-{4-[2-(6-(Cyclopropylcarbonyl)-2-oxo-1,3-benzothiazol-3(2H)-yl)-ethoxy]phenyl}-2-(2,2,2-trifluoroethoxy)propanoic acid]",42,71,45,,,,
"O=C(c1ccc2c(c1)sc(=O)n2CCOc1ccc(C[C@H](OCC(F)(F)F)C(=O)[O-])cc1)C1CC1.[Na+] [Example 9, Sodium (S)-3-{4-[2-(6-(cyclopropylcarbonyl)-2-oxo-1,3-benzothiazol-3(2H)-yl)ethoxy]phenyl}-2-(2,2,2-trifluoroethoxy)propanoate]",,,,39,41,14,52
